From US10662164B2, “Non-beta lactam antibiotics” (University of Notre Dame du Lac, priority 2014, dated 2020)
Values after ≈ are worked out from the molar mass of the structure shown. Where two headings read alike, the source gives them in different places.

Columns and labels:
S. aureus ATCC 29213 = test: MIC determination; assay type: cell-based, Staphylococcus aureus; conditions: for antibacterial activity in words (SAR, ring A derivatives): S. aureus ATCC 29213, compounds of Schemes 3-4; for MIC: Staphylococcus aureus
E. faecium NCTC 7171 = test: MIC determination; assay type: cell-based, Enterococcus faecium; conditions: for MIC: Enterococcus faecium
[1] = ATCC29213, Table 3.1 and SAR text, compounds of Schemes 2-4, read-out: S. aureus ATCC 29213 MIC
[2] = NCTC7171, Table 3.1, compounds of Schemes 2-4, read-out: E. faecium NCTC 7171 MIC
[3] = Table 3.1, compounds of Schemes 2-4

| MIC (S. aureus ATCC 29213; [1]) | MIC (E. faecium NCTC 7171; [2]) | Structure (SMILES) | antibacterial activity in words (SAR, ring A derivatives) (S. aureus ATCC 29213) | further results |
| --- | --- | --- | --- | --- |
| > 128 µg/mL | 32 µg/mL (≈ 70.1 µM) | Oc1cc(-c2nc(-c3ccc(Oc4ccccc4)cc3)no2)ccc1I [Compound 96a] | failed to show significant activity | – |
| > 128 µg/mL | > 128 µg/mL | Oc1ccccc1-c1nc(-c2ccc(Oc3ccccc3)cc2)no1 [Compound 97a] | failed to show significant activity | – |
| > 128 µg/mL | > 128 µg/mL | Nc1ccc(-c2nc(-c3ccc(Oc4ccccc4)cc3)no2)c(O)c1 [Compound 98a] | – | – |
| > 128 µg/mL | 128 µg/mL (≈ 329 µM) | COc1ccc(-c2nc(-c3ccc(Oc4ccccc4)cc3)no2)cc1[N+](=O)[O-] [Compound 99a] | – | – |
| > 128 µg/mL | > 128 µg/mL | COc1ccc(-c2nc(-c3ccc(Oc4ccc(C(F)(F)F)cc4)cc3)no2)cc1[N+](=O)[O-] [Compound 99b] | – | – |
| > 128 µg/mL | > 128 µg/mL | COc1ccc(-c2nc(-c3ccc(Oc4ccc(F)cc4)cc3)no2)cc1[N+](=O)[O-] [Compound 99c] | – | – |
| > 128 µg/mL | > 128 µg/mL | COc1ccc(-c2nc(-c3ccc(Oc4ccccc4)cc3)no2)cc1N [Compound 100a] | – | – |
| > 128 µg/mL | > 128 µg/mL | COc1ccc(-c2nc(-c3ccc(Oc4ccc(C(F)(F)F)cc4)cc3)no2)cc1OC [Compound 101b] | – | – |
| > 128 µg/mL | > 128 µg/mL | COc1ccc(-c2nc(-c3ccc(Oc4ccc(F)cc4)cc3)no2)cc1OC [Compound 101c] | – | – |
| > 128 µg/mL | 64 µg/mL (≈ 172 µM) | FC(F)(F)c1ccc(Oc2ccc(-c3noc(-c4cc[nH]n4)n3)cc2)cc1 [Compound 102b] | – | – |
| > 128 µg/mL | 32 µg/mL (≈ 99.3 µM) | Fc1ccc(Oc2ccc(-c3noc(-c4cc[nH]n4)n3)cc2)cc1 [Compound 102c] | – | – |
| – | – | C[Si](C)(C)C#Cc1c[nH]nc1-c1nc(-c2ccc(Oc3ccc(C(F)(F)F)cc3)cc2)no1 [Compound 103b, 3-(4-(4-Trifluoromethyl)phenoxy)phenyl)-5-(4-((trimethylsilyl)ethynyl-1H-pyrazol-3-yl)-1,2,4-oxadiazole] | – | S. aureus ATCC 29213 MIC (S. aureus ATCC 29213; [3]): >128 µg/mL; E. faecium NCTC 7171 MIC (E. faecium NCTC 7171; [3]): >128 µg/mL |
| > 128 µg/mL | > 128 µg/mL | CCCCNc1c[nH]nc1-c1nc(-c2ccc(Oc3ccc(C(F)(F)F)cc3)cc2)no1 [Compound 104b] | did not extend | – |
| > 128 µg/mL | 128 µg/mL (≈ 289 µM) | CCC(C)Nc1c[nH]nc1-c1nc(-c2ccc(Oc3ccc(C(F)(F)F)cc3)cc2)no1 (stereo not drawn) [Compound 105b] | did not extend | – |
| > 128 µg/mL | 128 µg/mL (≈ 273 µM) | FC(F)(F)c1ccc(Oc2ccc(-c3noc(-c4n[nH]cc4NC4CCCCC4)n3)cc2)cc1 [Compound 106b] | did not extend | – |
| > 128 µg/mL | > 128 µg/mL | FC(F)(F)c1ccc(Oc2ccc(-c3noc(-c4n[nH]cc4NC4CCCC4)n3)cc2)cc1 [Compound 107b] | did not extend | – |
| > 128 µg/mL | > 128 µg/mL | CC(C)(C)OC(=O)N1CCC(Nc2c[nH]nc2-c2nc(-c3ccc(Oc4ccc(C(F)(F)F)cc4)cc3)no2)CC1 [Compound 110b] | – | – |
| – | – | CCOP(=O)(OCC)c1c[nH]nc1-c1nc(-c2ccc(Oc3ccc(C(F)(F)F)cc3)cc2)no1 [Compound 111b] | – | MIC (S. aureus ATCC 29213; ATCC29213, read-out: S. aureus ATCC 29213 MIC): > 128 µg/mL; MIC (E. faecium NCTC 7171; NCTC7171, read-out: E. faecium NCTC 7171 MIC): > 128 µg/mL |
| > 128 µg/mL | > 128 µg/mL | Oc1nc(-c2ccc(Oc3ccccc3)cc2)no1 [Compound 112a] | abolishes activity | – |
| > 128 µg/mL | 64 µg/mL (≈ 203 µM) | c1ccc(Oc2ccc(-c3noc(-c4ccncc4)n3)cc2)cc1 [Compound 114a] | No activity | – |

| MIC (S. aureus ATCC 29213; [1]) | MIC (E. faecium NCTC 7171; [2]) | Structure (SMILES) | antibacterial activity in words (SAR, ring A derivatives) (S. aureus ATCC 29213) | further results |
| --- | --- | --- | --- | --- |
| > 128 µg/mL | 64 µg/mL (≈ 193 µM) | [O-][n+]1ccc(-c2nc(-c3ccc(Oc4ccccc4)cc3)no2)cc1 [Compound 115a] | No activity | – |
| > 128 µg/mL | > 128 µg/mL | FC(F)(F)c1ccc(Oc2ccc(-c3noc(-c4nc[nH]n4)n3)cc2)cc1 [Compound 116b] | No activity | – |
| 16 µg/mL (≈ 42.9 µM) | > 128 µg/mL | FC(F)(F)c1ccc(Oc2ccc(-c3noc(-c4cnn[nH]4)n3)cc2)cc1 [Compound 117b] | No activity | – |
| > 128 µg/mL | 64 µg/mL (≈ 176 µM) | CC(C)c1cc(-c2nc(-c3ccc(Oc4ccc(F)cc4)cc3)no2)[nH]n1 [Compound 119c] | No activity | – |
| > 128 µg/mL | 32 µg/mL (≈ 80.1 µM) | Oc1ccc(-c2nc(-c3ccc(Oc4ccc(C(F)(F)F)cc4)cc3)no2)cn1 [Compound 120b] | – | – |
| > 128 µg/mL | 64 µg/mL (≈ 183 µM) | Oc1ccc(-c2nc(-c3ccc(Oc4ccc(F)cc4)cc3)no2)cn1 [Compound 120c] | – | – |
| > 128 µg/mL | 64 µg/mL (≈ 154 µM) | Nc1cc(-c2nc(-c3ccc(Oc4ccc(C(F)(F)F)cc4)cc3)no2)cnc1O [Compound 121b] | – | – |
| > 128 µg/mL | 128 µg/mL (≈ 351 µM) | Nc1cc(-c2nc(-c3ccc(Oc4ccc(F)cc4)cc3)no2)cnc1O [Compound 121c] | – | – |
| > 128 µg/mL | > 128 µg/mL | Nc1cncc(-c2nc(-c3ccc(Oc4ccc(C(F)(F)F)cc4)cc3)no2)c1 [Compound 122b] | – | – |
| > 128 µg/mL | 128 µg/mL (≈ 367 µM) | Nc1cncc(-c2nc(-c3ccc(Oc4ccc(F)cc4)cc3)no2)c1 [Compound 122c] | – | – |
| > 128 µg/mL | > 128 µg/mL | FC(F)(F)c1ccc(Oc2ccc(-c3noc(-c4n[nH]c5ccccc45)n3)cc2)cc1 [Compound 123b] | – | – |
| > 128 µg/mL | 16 µg/mL (≈ 43 µM) | Fc1ccc(Oc2ccc(-c3noc(-c4n[nH]c5ccccc45)n3)cc2)cc1 [Compound 123c] | – | – |
| > 128 µg/mL | 64 µg/mL (≈ 181 µM) | c1ccc(Oc2ccc(-c3noc(-c4ccc5[nH]ncc5c4)n3)cc2)cc1 [Compound 124a] | No activity | – |
| > 128 µg/mL | 32 µg/mL (≈ 75.8 µM) | FC(F)(F)c1ccc(Oc2ccc(-c3noc(-c4c[nH]c5ncccc45)n3)cc2)cc1 [Compound 125b] | – | – |
| > 128 µg/mL | 64 µg/mL (≈ 172 µM) | Fc1ccc(Oc2ccc(-c3noc(-c4c[nH]c5ncccc45)n3)cc2)cc1 [Compound 125c] | – | – |
| 128 µg/mL (≈ 381 µM) | 64 µg/mL (≈ 190 µM) | Nc1c[nH]c(-c2nc(-c3ccc(Oc4ccc(F)cc4)cc3)no2)c1 [Compound 126c] | No activity | – |
| > 128 µg/mL | > 128 µg/mL | Fc1ccc(Oc2ccc(-c3noc(-c4cc[nH]c4)n3)cc2)cc1 [Compound 127c] | No activity | – |
| > 128 µg/mL | > 128 µg/mL | c1ccc(Oc2ccc(-c3noc(C4CCOCC4)n3)cc2)cc1 [Compound 131a] | – | – |
| ≥ 32 µg/mL | 32 µg/mL (≈ 103 µM) | NCCCCc1nc(-c2ccc(Oc3ccccc3)cc2)no1 [Compound 137a] | – | – |
